These results are taken from US11208412B2 (DAEGU-GYEONGBUK MEDICAL INNOVATION FOUNDATION, priority 2017, dated 2021).

Assay in all cases: Kinase selectivity, DiscoverX scanMAX Kinase assay panel (% control)
Holding throughout (type): binding

Assay [1] has as its target T1, kinases of the scanMAX Kinase assay panel (Homo sapiens, UniProt Q05655).
T1 construct: purchased DiscoverX Co. (contract measurement) scanMAX Kinase assay panel
As to conditions: PRKCD; 1 uM. An outline of the steps: (§1)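 A 1 uM DMSO solution of compound was applied across the panel kinases, and results were expressed as % control relative to DMSO (100%) and a positive control (0%).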

Assay [2] deals with T2, kinases of the scanMAX Kinase assay panel (Homo sapiens, UniProt P53778).
T2 construct: purchased DiscoverX Co. (contract measurement) scanMAX Kinase assay panel
T2 sequence (P53778 1-367): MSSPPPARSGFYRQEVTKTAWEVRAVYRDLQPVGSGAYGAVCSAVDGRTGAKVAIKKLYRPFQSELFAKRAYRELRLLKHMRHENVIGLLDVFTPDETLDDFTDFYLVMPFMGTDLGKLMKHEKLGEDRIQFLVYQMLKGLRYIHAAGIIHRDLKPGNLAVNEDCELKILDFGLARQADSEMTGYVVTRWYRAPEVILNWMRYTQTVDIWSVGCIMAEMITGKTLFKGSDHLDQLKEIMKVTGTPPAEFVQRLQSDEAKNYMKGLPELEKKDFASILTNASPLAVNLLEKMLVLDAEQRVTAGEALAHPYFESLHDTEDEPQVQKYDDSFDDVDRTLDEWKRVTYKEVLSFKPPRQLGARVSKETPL
Conditions: p38-gamma; 1 uM. The gist of the method: as §1

Assay [3] has as its target T3, kinases of the scanMAX Kinase assay panel (Homo sapiens, UniProt P50613).
T3 construct: purchased DiscoverX Co. (contract measurement) scanMAX Kinase assay panel
Conditions: CDK7; 1 uM. An outline of the steps:
as §1

The target in assay [4] is T4, kinases of the scanMAX Kinase assay panel (Homo sapiens, UniProt O00329).
T4 construct: purchased DiscoverX Co. (contract measurement) scanMAX Kinase assay panel
T4 sequence (O00329 1-1044): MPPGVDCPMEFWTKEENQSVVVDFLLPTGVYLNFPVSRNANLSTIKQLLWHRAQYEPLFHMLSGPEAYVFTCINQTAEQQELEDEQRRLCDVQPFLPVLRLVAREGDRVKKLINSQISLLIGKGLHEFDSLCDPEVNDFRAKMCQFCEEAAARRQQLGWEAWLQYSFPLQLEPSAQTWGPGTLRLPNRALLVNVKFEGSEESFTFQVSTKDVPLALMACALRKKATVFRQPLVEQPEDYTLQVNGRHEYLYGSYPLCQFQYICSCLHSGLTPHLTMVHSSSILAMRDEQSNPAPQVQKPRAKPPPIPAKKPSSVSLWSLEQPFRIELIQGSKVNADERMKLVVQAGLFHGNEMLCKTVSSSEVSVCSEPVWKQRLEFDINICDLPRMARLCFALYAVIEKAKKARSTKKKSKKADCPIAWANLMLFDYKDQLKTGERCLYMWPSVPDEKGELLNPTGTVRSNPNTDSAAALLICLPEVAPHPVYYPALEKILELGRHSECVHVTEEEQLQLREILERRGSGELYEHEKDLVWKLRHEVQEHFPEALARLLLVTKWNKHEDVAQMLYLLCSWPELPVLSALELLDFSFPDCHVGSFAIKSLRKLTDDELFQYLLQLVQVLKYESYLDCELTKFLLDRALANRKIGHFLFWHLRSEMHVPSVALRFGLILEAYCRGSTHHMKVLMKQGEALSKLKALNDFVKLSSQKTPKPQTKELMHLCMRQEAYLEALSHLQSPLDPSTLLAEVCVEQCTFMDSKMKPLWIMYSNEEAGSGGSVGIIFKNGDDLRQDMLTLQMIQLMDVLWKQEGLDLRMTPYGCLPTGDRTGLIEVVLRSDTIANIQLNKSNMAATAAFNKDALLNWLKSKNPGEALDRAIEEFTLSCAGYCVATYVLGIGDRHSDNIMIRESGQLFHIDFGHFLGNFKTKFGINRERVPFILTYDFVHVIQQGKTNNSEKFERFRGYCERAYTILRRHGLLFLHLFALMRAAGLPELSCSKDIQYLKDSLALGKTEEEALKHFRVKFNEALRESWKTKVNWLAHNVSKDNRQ
As to conditions: PIK3CD; 1 uM. The gist of the method:
as §1

The target of assay [5] is T5, kinases of the scanMAX Kinase assay panel (Homo sapiens, UniProt P42336, M1043I).
T5 construct: purchased DiscoverX Co. (contract measurement) scanMAX Kinase assay panel
T5 sequence (P42336 whole entry M1043I): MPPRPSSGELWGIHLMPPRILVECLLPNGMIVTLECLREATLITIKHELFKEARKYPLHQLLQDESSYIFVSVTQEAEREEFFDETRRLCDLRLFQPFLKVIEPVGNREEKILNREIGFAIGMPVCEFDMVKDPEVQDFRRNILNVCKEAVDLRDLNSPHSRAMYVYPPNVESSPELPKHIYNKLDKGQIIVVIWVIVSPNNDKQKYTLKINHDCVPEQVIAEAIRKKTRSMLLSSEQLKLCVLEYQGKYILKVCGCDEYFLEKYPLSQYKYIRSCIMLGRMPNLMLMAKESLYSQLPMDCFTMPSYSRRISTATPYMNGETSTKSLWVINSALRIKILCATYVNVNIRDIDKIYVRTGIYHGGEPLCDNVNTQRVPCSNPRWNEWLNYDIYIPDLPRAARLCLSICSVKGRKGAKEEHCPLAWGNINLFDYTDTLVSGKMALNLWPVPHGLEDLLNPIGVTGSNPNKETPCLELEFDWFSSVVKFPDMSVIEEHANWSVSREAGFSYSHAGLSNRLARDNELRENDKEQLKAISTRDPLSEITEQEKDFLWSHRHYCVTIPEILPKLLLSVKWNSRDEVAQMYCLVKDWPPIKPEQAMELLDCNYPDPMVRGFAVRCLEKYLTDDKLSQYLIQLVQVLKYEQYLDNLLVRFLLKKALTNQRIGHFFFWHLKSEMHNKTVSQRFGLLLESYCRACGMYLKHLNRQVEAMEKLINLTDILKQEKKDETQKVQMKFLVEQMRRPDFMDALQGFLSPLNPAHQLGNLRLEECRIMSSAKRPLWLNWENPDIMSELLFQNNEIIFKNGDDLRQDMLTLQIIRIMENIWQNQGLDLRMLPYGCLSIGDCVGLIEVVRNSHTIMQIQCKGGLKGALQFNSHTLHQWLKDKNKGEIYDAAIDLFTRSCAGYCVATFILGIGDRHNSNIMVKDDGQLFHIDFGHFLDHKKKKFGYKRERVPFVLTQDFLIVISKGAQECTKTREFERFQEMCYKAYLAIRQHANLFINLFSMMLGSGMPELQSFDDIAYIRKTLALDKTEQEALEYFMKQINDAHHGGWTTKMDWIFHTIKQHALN
As to conditions: PIK3CA(M1043I); 1 uM. An outline of the steps:
as §1

Assay [6] concerns the target T6, kinases of the scanMAX Kinase assay panel (Homo sapiens, UniProt P04626).
T6 construct: purchased DiscoverX Co. (contract measurement) scanMAX Kinase assay panel
Conditions: ERBB2; 1 uM. An outline of the steps:
as §1

Assay [7] addresses T7, kinases of the scanMAX Kinase assay panel (Homo sapiens, UniProt P53350).
T7 construct: purchased DiscoverX Co. (contract measurement) scanMAX Kinase assay panel
Conditions: PLK1; 1 uM. An outline of the steps: as §1

Assay [8] addresses T8, kinases of the scanMAX Kinase assay panel (Homo sapiens, UniProt P06241).
T8 construct: purchased DiscoverX Co. (contract measurement) scanMAX Kinase assay panel
Conditions: FYN; 1 uM. The gist of the method:
as §1

T6 sequence (P04626 23-1255): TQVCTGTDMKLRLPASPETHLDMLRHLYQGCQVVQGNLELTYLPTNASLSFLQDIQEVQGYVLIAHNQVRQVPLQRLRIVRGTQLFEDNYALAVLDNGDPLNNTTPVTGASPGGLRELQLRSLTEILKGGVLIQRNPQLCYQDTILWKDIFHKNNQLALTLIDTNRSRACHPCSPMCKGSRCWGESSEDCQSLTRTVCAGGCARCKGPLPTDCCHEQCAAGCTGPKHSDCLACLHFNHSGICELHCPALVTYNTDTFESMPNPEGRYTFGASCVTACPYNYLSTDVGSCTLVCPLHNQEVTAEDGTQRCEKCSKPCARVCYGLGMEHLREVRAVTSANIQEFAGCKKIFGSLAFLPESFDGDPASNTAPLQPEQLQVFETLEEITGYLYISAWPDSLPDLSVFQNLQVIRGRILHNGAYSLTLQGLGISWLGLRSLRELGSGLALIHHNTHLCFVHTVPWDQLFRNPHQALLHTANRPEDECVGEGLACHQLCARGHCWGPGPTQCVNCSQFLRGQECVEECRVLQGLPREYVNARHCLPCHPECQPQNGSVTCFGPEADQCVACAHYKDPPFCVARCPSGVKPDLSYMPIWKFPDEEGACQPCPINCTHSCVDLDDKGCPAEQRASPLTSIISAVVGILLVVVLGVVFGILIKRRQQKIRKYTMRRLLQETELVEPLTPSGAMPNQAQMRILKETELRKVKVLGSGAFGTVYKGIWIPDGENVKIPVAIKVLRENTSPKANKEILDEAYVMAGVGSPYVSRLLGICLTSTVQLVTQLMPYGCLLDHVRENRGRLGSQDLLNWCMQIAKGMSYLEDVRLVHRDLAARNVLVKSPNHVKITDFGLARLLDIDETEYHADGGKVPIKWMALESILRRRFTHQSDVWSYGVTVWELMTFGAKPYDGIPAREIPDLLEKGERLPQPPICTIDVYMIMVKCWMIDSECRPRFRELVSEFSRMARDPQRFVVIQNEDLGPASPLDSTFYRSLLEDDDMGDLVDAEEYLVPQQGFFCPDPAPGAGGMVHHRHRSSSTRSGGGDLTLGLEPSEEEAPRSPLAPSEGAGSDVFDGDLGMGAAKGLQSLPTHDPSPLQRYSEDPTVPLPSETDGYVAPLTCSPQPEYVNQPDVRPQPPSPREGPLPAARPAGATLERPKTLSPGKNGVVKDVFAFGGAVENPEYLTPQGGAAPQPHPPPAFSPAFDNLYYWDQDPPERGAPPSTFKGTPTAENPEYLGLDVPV
T3 sequence (P50613 whole entry): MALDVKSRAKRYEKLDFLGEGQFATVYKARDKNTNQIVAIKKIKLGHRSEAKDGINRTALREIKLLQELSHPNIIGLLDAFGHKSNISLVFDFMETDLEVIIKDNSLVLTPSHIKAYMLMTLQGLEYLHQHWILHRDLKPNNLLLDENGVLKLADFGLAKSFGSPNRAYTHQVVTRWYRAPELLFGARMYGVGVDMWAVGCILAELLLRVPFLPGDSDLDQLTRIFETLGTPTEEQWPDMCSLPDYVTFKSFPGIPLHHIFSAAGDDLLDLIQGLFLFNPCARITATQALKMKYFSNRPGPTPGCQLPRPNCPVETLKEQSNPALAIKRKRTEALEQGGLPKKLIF
T1 sequence (Q05655 whole entry): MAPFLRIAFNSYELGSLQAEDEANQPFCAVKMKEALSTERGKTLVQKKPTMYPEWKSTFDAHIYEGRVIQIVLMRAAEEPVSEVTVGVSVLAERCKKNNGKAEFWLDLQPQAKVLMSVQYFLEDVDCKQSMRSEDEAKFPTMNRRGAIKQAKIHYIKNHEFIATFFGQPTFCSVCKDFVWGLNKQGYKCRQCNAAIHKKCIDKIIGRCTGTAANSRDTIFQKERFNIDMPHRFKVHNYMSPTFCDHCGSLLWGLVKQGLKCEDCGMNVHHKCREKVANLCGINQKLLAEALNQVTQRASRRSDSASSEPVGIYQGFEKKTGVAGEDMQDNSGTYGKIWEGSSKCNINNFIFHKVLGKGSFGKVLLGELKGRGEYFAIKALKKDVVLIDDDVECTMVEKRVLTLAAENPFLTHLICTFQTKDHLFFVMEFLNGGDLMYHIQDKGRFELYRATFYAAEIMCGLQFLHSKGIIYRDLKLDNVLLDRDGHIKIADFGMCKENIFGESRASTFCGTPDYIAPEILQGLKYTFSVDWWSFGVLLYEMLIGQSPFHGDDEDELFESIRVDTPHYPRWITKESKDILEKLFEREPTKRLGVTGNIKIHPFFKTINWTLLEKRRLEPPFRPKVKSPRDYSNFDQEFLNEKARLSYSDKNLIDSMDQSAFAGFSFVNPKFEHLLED
T7 sequence (P53350 whole entry): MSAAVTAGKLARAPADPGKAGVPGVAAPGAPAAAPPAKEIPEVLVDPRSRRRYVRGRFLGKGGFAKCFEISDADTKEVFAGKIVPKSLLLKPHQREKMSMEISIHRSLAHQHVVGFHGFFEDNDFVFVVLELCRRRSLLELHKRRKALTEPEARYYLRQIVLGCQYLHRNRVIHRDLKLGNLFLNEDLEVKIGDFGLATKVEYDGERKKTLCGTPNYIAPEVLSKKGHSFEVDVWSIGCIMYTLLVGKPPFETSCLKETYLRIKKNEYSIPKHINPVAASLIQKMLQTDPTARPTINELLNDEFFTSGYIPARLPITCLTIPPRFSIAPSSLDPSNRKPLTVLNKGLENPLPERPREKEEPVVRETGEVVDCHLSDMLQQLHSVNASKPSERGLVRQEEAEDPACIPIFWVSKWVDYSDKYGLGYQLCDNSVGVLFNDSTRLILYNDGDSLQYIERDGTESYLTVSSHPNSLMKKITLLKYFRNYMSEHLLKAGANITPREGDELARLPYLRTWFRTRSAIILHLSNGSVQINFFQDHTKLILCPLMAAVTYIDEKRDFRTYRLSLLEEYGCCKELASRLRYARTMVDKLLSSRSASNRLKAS
T8 sequence (P06241 whole entry): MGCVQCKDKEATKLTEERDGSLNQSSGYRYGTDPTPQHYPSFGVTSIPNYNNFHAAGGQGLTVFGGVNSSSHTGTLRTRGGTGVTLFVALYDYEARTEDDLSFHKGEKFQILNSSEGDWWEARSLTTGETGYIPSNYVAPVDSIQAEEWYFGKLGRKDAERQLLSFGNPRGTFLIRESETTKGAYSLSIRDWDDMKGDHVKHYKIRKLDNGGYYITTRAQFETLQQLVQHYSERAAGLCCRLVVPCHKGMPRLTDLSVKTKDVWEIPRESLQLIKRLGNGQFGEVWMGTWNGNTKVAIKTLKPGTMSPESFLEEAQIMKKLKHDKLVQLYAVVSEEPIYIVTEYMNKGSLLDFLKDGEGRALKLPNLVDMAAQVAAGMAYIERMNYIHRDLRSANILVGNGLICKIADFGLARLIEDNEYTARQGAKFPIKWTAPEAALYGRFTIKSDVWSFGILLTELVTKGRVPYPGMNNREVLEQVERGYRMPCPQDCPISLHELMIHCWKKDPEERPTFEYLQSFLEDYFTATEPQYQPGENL

For the molecule `CNc1nc(Nc2ccc(C(=O)N3CCOCC3)cc2OC)nc2[nH]cc(C#N)c12` [Example 1, 2-((2-methoxy-4-(morpholine-4-carbonyl)phenyl)amino)-4-(methylamino)-7H-pyrrolo[2,3-d]pyrimidine-5-carbonitrile], the remaining binding at 1 µM was found to be 100% in assay [1]; 70% in assay [2]; 67% in assay [3]; 99% in assay [4]; 94% in assay [5]; 79% in assay [6]. Also, the figures for the remaining binding at 1 µM in assay [7] and in assay [8] were 14% and 100%, respectively.

Regarding `CC1(Nc2nc(Nc3cnn([C@H]4CCN(C5COC5)C[C@@H]4F)c3Cl)nc3[nH]cc(C#N)c23)CC1` [Example 52, 2-((5-chloro-1-((3S,4S)-3-fluoro-1-(oxetane-3-yl)piperidine-4-yl)-1H-pyrazole-4-yl)amino)((1-methylcyclopropyl)amino)-7H-pyrrolo[2,3-d]pyrimidine-5-carbonitrile], the remaining binding at 1 µM in assay [1] was 81%; in assay [2], 77%; in assay [3], 19%; in assay [4], 9.4%; in assay [5] it was 37%; in assay [6], 100%. Besides, the remaining binding at 1 µM stood at 100% in assay [7] and 19% in assay [8].

On to `CCNc1nc(Nc2ccc(C(=O)N3CCC(N4CCOCC4)CC3)cc2OC)nc2[nH]cc(C(F)(F)F)c12` [Example 104, (4-((4-(ethylamino)-5-(trifluoromethyl)-7H-pyrrolo[2,3-d]pyrimidine-2-yl)amino)-3-methoxyphenyl)(4-morpholinopiperidine-1-yl)methanone], for which the remaining binding at 1 µM was found to be 100% in assay [1]; 89% in assay [2]; 48% in assay [3]; 78% in assay [4]; 84% in assay [5]; 100% in assay [6]. Also, the remaining binding at 1 µM in assay [7] came out at 65%; in assay [8], 100%.
